For assay [1], the target named is T1, human adenosine A2A receptor (Homo sapiens, UniProt P29274).
T1 construct: expressed in transfected cells; host or cells: HEK293 cells infected with BacMam
Put plainly: Inhibition binding assay, human adenosine A2A receptor membranes, [3H]ZM241385. Conditions: 1 nM [3H]ZM241385, HEK293-hA2A membranes, 25° C., 1 h, IC50 converted to Ki with Cheng-Prusoff. The procedure: (§1) Inhibition binding assays were performed using 0.2 μg of membranes prepared from HEK293 cells infected with BacMam human adenosine A2A receptor or 1.4 μg of membranes prepared from HEK293 cells infected with BacMam human adenosine A1 receptor. Membranes were incubated in 50 mM Tris-HCl (HEK293-hA2A; pH 7.4) or 50 mM Tris-HCl, 100 mM NaCl, 10 mM MgCl2 (CHO-hA1; pH 7.4) in the presence of varying concentrations of test compound and 1 nM [^3H]ZM241385 (HEK293-hA2A) or [^3H]DPCPX (CHO-hA1) at 25° C. for 1 h. The assay was then terminated by rapid filtration onto GF/B grade Unifilter plates using a TomTec cell harvester, followed by 5×0.5 ml washes with ddH2O. Nonspecific binding was defined in the presence of 1 μM CGS15943 (HEK293-hA2A) or 1 μM DPCPX (CHO-hA1). Bound radioactivity was determined by liquid scintillation counting and inhibition curves were analysed using a four-parameter logistic equation. IC50 values were converted to Ki values with the Cheng-Prusoff equation using a KD value derived from saturation binding studies.

The target of assay [2] is T2, human adenosine A1 receptor (Homo sapiens, UniProt P30542).
T2 construct: expressed in transfected cells; host or cells: HEK293 cells infected with BacMam (the same paragraph also labels the preparation CHO-hA1)
T2 sequence (P30542 1-326): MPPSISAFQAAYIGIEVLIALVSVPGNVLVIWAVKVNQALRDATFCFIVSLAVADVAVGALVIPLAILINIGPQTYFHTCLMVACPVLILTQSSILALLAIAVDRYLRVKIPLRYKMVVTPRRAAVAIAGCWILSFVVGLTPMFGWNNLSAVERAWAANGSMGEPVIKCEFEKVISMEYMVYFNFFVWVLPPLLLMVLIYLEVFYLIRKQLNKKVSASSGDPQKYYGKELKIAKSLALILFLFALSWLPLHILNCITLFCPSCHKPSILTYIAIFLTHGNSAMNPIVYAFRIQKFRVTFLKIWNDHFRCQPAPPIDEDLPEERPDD
Put plainly: Inhibition binding assay, human adenosine A1 receptor membranes, [3H]DPCPX. To be noted: 1 nM [3H]DPCPX, 25° C., 1 h; IC50 converted to Ki with Cheng-Prusoff; read-out: A1 pKi (converted). The procedure:
as §1

Read-outs that look alike come from different tables or passages of the source.

T1 sequence (P29274 whole entry): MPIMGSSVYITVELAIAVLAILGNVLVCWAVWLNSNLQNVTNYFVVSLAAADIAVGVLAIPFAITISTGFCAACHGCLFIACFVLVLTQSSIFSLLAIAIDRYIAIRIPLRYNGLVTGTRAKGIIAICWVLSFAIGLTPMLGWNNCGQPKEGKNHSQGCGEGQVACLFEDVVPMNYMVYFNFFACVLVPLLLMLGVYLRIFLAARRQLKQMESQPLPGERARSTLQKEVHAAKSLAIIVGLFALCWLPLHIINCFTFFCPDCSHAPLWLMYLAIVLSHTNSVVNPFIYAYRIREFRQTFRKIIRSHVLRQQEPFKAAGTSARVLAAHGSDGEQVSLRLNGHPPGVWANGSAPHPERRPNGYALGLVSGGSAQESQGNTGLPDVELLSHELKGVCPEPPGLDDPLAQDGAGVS

On to `Cc1cc(-c2c(-c3ccccc3)nc(N)n3c(=O)n(CCN4C5CCCC4CC5)nc23)cc(C)n1` [Example 2-103, 5-amino-2-[2-(8-azabicyclo[3.2.1]octan-8-yl)ethyl]-8-(2,6-dimethyl-4-pyridyl)-7-phenyl-[1,2,4]triazolo[4,3-c]pyrimidin-3-one], for which the Ki was 6.31 nM in assay [1] (A2A pKi) and 1000 nM in assay [2]. With `Cc1cc(-c2c(-c3ccccc3)nc(N)n3c(=O)n(Cc4ccc(C#N)cn4)nc23)cc(CO)n1` [Example 1-54, 6-[[5-amino-8-[2-(hydroxymethyl)-6-methyl-4-pyridyl]-3-oxo-7-phenyl-[1,2,4]triazolo[4,3-c]pyrimidin-2-yl]methyl]pyridine-3-carbonitrile], in assay [1] (read-out: A2A pKi (converted)), the Ki is 158 nM. Consider `Cc1cc(-c2c(-c3ccccc3)nc(N)n3c(=O)n(CCN4CCC5CC54)nc23)cc(C)n1` (stereo not shown) [Example 2-95, 2-(2-(2-azabicyclo[3.1.0]hexan-2-yl)ethyl)-5-amino-8-(2,6-dimethylpyridin-4-yl)-7-phenyl-[1,2,4]triazolo[4,3-c]pyrimidin-3(2H)-one], for which the Ki in assay [1] (read-out: A2A pKi (converted)) is 6.31 nM.

`Cc1cc(-c2c(-c3ccc(F)cc3)nc(N)n3c(=O)n(CC4CCCN=N4)nc23)cc(CO)n1` (stereo not shown) [Example 2-93, 5-amino-7-(4-fluorophenyl)-8-[2-(hydroxymethyl)-6-methyl-4-pyridyl]-2-(3,4,5,6-tetrahydropyridazin-3-ylmethyl)-[1,2,4]triazolo[4,3-c]pyrimidin-3-one]: the Ki in assay [1] (read-out: A2A pKi (converted)) is 31.6 nM.

On to `Cc1cc(-c2c(-c3ccccc3)nc(N)n3c(=O)n(CCN4CCCCC4)nc23)cc(C)n1` [Example 2-96, 5-amino-8-(2,6-dimethyl-4-pyridyl)-7-phenyl-2-[2-(1-piperidyl)ethyl]-[1,2,4]triazolo[4,3-c]pyrimidin-3-one], for which, in assay [1] (read-out: A2A pKi (converted)), the Ki was 15.8 nM.

For `Cc1cc(-c2c(-c3ccccc3)nc(N)n3c(=O)n(C[C@H]4COCCN4C(=O)OC(C)(C)C)nc23)cc(C)n1` [Example 2-75, tert-butyl (3S)-3-[[5-amino-8-(2,6-dimethyl-4-pyridyl)-3-oxo-7-phenyl-[1,2,4]triazolo[4,3-c]pyrimidin-2-yl]methyl]morpholine-4-carboxylate], the Ki in assay [1] (read-out: A2A pKi (converted)) is 100 nM. On the same count and under the same terms, the figure for `CNC(=O)CCn1nc2c(-c3cc(C)nc(C)c3)c(-c3ccccc3)nc(N)n2c1=O` [Example 2-113, 3-(5-amino-8-(2,6-dimethylpyridin-4-yl)-3-oxo-7-phenyl-[1,2,4]triazolo[4,3-c]pyrimidin-2(3H)-yl)-N-methylpropanamide] is 25.1 nM; for `Cc1cc(-c2c(-c3ccccc3)nc(N)n3c(=O)n(CCN(C)C4(CO)CCc5ccccc5C4)nc23)cc(C)n1` (stereo not shown) [Example 1-99, 5-amino-8-(2,6-dimethyl-4-pyridyl)-2-[2-[[2-(hydroxymethyl)tetralin-2-yl]-methyl-amino]ethyl]-7-phenyl-[1,2,4]triazolo[4,3-c]pyrimidin-3-one] it is 39.8 nM; for `CCNC(=O)OCCn1nc2c(-c3cc(C)nc(C)c3)c(-c3ccccc3)nc(N)n2c1=O` [Example 2-16, 2-[5-amino-8-(2,6-dimethyl-4-pyridyl)-3-oxo-7-phenyl-[1,2,4]triazolo[4,3-c]pyrimidin-2-yl]ethyl N-ethylcarbamate] it is 20 nM.

As for `Cc1cnn(-c2nc(N)n3c(=O)n(CCC(F)(F)F)nc3c2-c2cc(C)nc(C)c2)c1` [Example 2-41, 5-amino-8-(2,6-dimethyl-4-pyridyl)-7-(4-methylpyrazol-1-yl)-2-(3,3,3-trifluoropropyl)-[1,2,4]triazolo[4,3-c]pyrimidin-3-one], in assay [1] (read-out: A2A pKi (converted)), the Ki was 31.6 nM.

Regarding `Cc1cc(-c2c(-c3ccccc3)nc(N)n3c(=O)n(C[C@H]4CNCCN4C)nc23)cc(C)n1` [Example 2-86, 5-amino-8-(2,6-dimethyl-4-pyridyl)-2-[[(2R)-1-methylpiperazin-2-yl]methyl]-7-phenyl-[1,2,4]triazolo[4,3-c]pyrimidin-3-one], the Ki in assay [1] (read-out: A2A pKi (converted)) is 25.1 nM. Turning to `Cc1cc(-c2c(-c3ccccc3)nc(N)n3c(=O)n(C[C@@H]4CN(C)CCN4C)nc23)cc(C)n1` [Example 2-87, (S)-5-amino-2-((1,4-dimethylpiperazin-2-yl)methyl)-8-(2,6-dimethylpyridin-4-yl)-7-phenyl-[1,2,4]triazolo[4,3-c]pyrimidin-3(2H)-one], the Ki in assay [1] (read-out: A2A pKi (converted)) was 100 nM. Regarding `Cc1cc(-c2c(-c3ccccc3)nc(N)n3c(=O)n(C[C@H]4CN(C)CCN4C)nc23)cc(C)n1` [Example 2-85, (R)-5-amino-2-((1,4-dimethylpiperazin-2-yl)methyl)-8-(2,6-dimethylpyridin-4-yl)-7-phenyl-[1,2,4]triazolo[4,3-c]pyrimidin-3(2H)-one], the Ki in assay [1] (read-out: A2A pKi (converted)) was 7.94 nM.

As to `Cc1cc(-c2c(-c3ccc(F)cc3)nc(N)n3c(=O)n(Cc4ccc(F)cn4)nc23)cc(CO)n1` [Example 1-59, 5-amino-7-(4-fluorophenyl)-2-[(5-fluoro-2-pyridyl)methyl]-8-[2-(hydroxymethyl)-6-methyl-4-pyridyl]-[1,2,4]triazolo[4,3-c]pyrimidin-3-one], the Ki in assay [1] (read-out: A2A pKi (converted)) is 1.58 nM. The same measure, in the same setting: as for `Cc1cc(-c2c(-c3ccccc3)nc(N)n3c(=O)n(C[C@H]4CN(C)CCO4)nc23)cc(C)n1` [Example 2-74, 5-amino-8-(2,6-dimethyl-4-pyridyl)-2-[[(2R)-4-methylmorpholin-2-yl]methyl]-7-phenyl-[1,2,4]triazolo[4,3-c]pyrimidin-3-one], the figure is 15.8 nM; as for `COc1cc(-c2c(-c3ccc(F)cc3)nc(N)n3c(=O)n(Cc4ccc(C)cn4)nc23)cc(CO)n1` [Example 1-67, 5-amino-7-(4-fluorophenyl)-8-[2-(hydroxymethyl)-6-methoxy-4-pyridyl]-2-[(5-methyl-2-pyridyl)methyl]-[1,2,4]triazolo[4,3-c]pyrimidin-3-one], 0.794 nM; as for `Cc1cc(-c2c(-c3ccco3)nc(N)n3c(=O)n(CCC(F)(F)F)nc23)cc(C)n1` [Example 2-42, 5-amino-8-(2,6-dimethyl-4-pyridyl)-7-(2-furyl)-2-(3,3,3-trifluoropropyl)-[1,2,4]triazolo[4,3-c]pyrimidin-3-one], 1 nM. On the same count and under the same terms, as for `Cc1cc(-c2c(-c3ccccc3)nc(N)n3c(=O)n(C[C@@H]4CNCCN4C)nc23)cc(C)n1` [Example 2-88, 5-amino-8-(2,6-dimethyl-4-pyridyl)-2-[[(2S)-1-methylpiperazin-2-yl]methyl]-7-phenyl-[1,2,4]triazolo[4,3-c]pyrimidin-3-one], the figure is 79.4 nM; as for `Cc1cc(-c2c(-c3ccccc3)nc(N)n3c(=O)n(C(C)C)nc23)cc(C)n1` [Example 2-4, 5-amino-8-(2,6-dimethyl-4-pyridyl)-2-isopropyl-7-phenyl-[1,2,4]triazolo[4,3-c]pyrimidin-3-one], 50.1 nM. Regarding `COC(=O)N1CCCC(NCCn2nc3c(-c4cc(C)nc(C)c4)c(-c4ccccc4)nc(N)n3c2=O)C1` (stereo not shown) [Example 2-106, methyl 3-[2-[5-amino-8-(2,6-dimethyl-4-pyridyl)-3-oxo-7-phenyl-[1,2,4]triazolo[4,3-c]pyrimidin-2-yl]ethylamino]piperidine-1-carboxylate], in assay [1] (read-out: A2A pKi (converted)), the Ki was 100 nM. For the molecule `Cc1cc(-c2c(-c3ccccc3)nc(N)n3c(=O)n(CCC4CCN(CCC(=O)O)CC4)nc23)cc(C)n1` [Example 2-110, 3-[4-[2-[5-amino-8-(2,6-dimethyl-4-pyridyl)-3-oxo-7-phenyl-[1,2,4]triazolo[4,3-c]pyrimidin-2-yl]ethyl]-1-piperidyl]propanoic acid], in assay [1] (read-out: A2A pKi (converted)), the Ki was 126 nM. The same measure, in the same setting: the figure for `Cc1cc(-c2c(-c3ccccc3)nc(N)n3c(=O)n(CCN4CCCC(C)C4)nc23)cc(C)n1` (stereo not shown) [Example 2-98, 5-amino-8-(2,6-dimethyl-4-pyridyl)-2-[2-(3-methyl-1-piperidyl)ethyl]-7-phenyl-[1,2,4]triazolo[4,3-c]pyrimidin-3-one] is 20 nM; for `Cc1cc(-c2c(-c3ccccc3)nc(N)n3c(=O)n(C[C@@H]4CNCCO4)nc23)cc(C)n1` [Example 2-71, (S)-5-amino-8-(2,6-dimethylpyridin-4-yl)-2-(morpholin-2-ylmethyl)-7-phenyl-[1,2,4]triazolo[4,3-c]pyrimidin-3(2H)-one] it is 31.6 nM; for `Cc1cc(-c2c(-c3ccccc3)nc(N)n3c(=O)n(CCC(N)=O)nc23)cc(C)n1` [Example 2-31, 3-[5-amino-8-(2,6-dimethyl-4-pyridyl)-3-oxo-7-phenyl-[1,2,4]triazolo[4,3-c]pyrimidin-2-yl]propanamide] it is 25.1 nM.

The values are drawn from patent publication US12528815B2, “5-amino-8-(4-pyridyl)-[1,2,4]triazolo[4,3-c]pyrimidin-3-one compounds for use against cancer” (Nxera Pharma UK Limited, priority 2020, dated 2026).
